Results from US10864190B2 (CeMM—Forschungszentrum für Molekulare Medizin GmbH, priority 2015, dated 2020).

What was measured:
LNCaP cells = assay: Dose-response matrix, viability of LNCaP cells; assay type: cell-based; settings: 3 days, antiandrogen in combination with phenprocoumon
Description: LNCaP (ATCC, Manassas, Va., USA, CRL-1740) and PC-3 (ATCC, CRL-1435) cells were grown in RPMI-1640 supplemented with 10% fetal bovine serum (Thermo Fisher Scientific) and 1% penicillin/streptomycin (Sigma-Aldrich). For steroid-deprived experiments, LNCaP cells were cultured in RPMI-1640 supplemented with 10% charcoal stripped fetal bovine serum (Thermo Fisher Scientific) and 1% penicillin/streptomycin (Sigma-Aldrich).
CLOUD drugs and combinations thereof were transferred on 384-well plates using an acoustic liquid handler (Echo, Labcyte, Sunnyvale, Calif., USA) and 5,000 cells/well were dispensed on top of the drugs using a dispenser (Thermo Fisher Scientific) for a total of 50 μl/well. Viability was measured after 72 hours using CellTiter-Glo (Promega, Fitchburg, Wis., USA) in a multilabel plate reader (EnVision, PekinElmer, Waltham, Mass., USA). Signal was then normalized to negative (DMSO) and positive (10 μM dasatinib) controls and set between 0 and 100. […] Drug combinations were analyzed according to the Bliss independence model (Bliss C I, Ann Appl Biol, 1939, 26:585-615). Briefly, the effect of the combination of drug A and drug B can be predicted to be C=A+B−A*B where A and B are the effects of the single drugs expressed as fractional inhibition between 0 and 1. A deviation of the experimental value from the Bliss prediction was calculated. […]

androgen receptor (AR) [1] = biological target: T1, androgen receptor (AR) (Homo sapiens, UniProt P10275, T878A); assay: Cellular thermal shift assay (CETSA); assay type: binding
T1 construct: AR immunoprecipitated from LNCaP cells treated with either DMSO or phenprocoumon; host or cells: LNCaP
T1 sequence (P10275 whole entry T878A): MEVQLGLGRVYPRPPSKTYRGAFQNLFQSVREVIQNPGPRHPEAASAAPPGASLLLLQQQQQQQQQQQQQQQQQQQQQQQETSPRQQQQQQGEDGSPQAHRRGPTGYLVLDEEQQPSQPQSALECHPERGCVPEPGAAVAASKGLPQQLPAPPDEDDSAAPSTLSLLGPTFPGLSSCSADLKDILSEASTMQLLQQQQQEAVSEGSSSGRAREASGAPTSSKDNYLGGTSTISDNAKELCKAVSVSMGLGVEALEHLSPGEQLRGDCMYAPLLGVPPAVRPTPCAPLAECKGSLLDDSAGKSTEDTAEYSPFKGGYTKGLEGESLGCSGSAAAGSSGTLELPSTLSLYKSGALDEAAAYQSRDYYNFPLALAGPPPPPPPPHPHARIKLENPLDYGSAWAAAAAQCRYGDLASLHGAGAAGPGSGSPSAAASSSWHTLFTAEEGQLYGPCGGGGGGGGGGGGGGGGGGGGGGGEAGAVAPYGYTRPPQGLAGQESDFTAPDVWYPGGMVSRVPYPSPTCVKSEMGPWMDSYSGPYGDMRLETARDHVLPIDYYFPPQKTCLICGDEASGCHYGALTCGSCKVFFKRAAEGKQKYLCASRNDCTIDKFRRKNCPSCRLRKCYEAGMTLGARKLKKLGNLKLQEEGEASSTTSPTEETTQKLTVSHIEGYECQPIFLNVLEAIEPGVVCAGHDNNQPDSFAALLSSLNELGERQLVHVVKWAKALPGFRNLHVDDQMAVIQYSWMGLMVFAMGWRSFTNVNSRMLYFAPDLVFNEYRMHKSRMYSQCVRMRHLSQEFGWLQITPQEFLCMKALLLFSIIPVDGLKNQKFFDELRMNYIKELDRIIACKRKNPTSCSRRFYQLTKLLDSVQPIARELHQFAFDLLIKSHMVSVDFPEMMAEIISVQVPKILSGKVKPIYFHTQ
Description: LNCaP cells were treated with DMSO or 35 μM PPC for 2 days and then harvested maintaining a constant concentration of PPC in all subsequent handling buffers. Otherwise, lysates were directly treated with the drug as already described (Martinez Molina D et al., Science, 2013, 341:84-7).

androgen receptor (AR) [2] = assay: 2D difference gel electrophoresis (DIGE) of immunoprecipitated AR; assay type: cell-based; settings: AR immunoprecipitated from LNCaP cells, versus DMSO
Description: (§1) Cells were lysed in IP buffer (50 mM Tris pH 8, 150 mM NaCl, 1% Igepal) supplemented with a cocktail of protease inhibitors (Roche). Immunoprecipitations were performed at 4° C. and using Dynabeads Protein G (Thermo Fisher Scientific). Lysates were precleared with beads for 30 minutes, incubated with antibodies overnight (1 μg antibody was used for 50 μg protein) and immunoprecipitated for 2 hours. After washing, immunoprecipitated proteins were eluted by either boiling in Laemmli buffer or using 50 mM glycine pH 2.8.
IP lysates eluted with glycine buffer were used for 2D difference gel electrophoresis (DIGE). […] Rehydration and isoelectric focusing on IPG strips (ReadyStrip IPG Strips, 11 cm, pH 3-10, non-linear (BioRad)) was followed by SDS-PAGE on gradient gels (Criterion, Any kD, BioRad) and detection with a Typhoon fluorescence scanner at the recommended excitation and emission wavelengths for G-Dye200 and G. Images were analyzed using Delta2D 4.3 software (Decodon, Greifswald, Germany).
The inventors then assessed whether phenprocoumon treatment could otherwise modify AR and analyzed the migration pattern of the protein by means of 2D gel electrophoresis (see FIG. 13H).

γ-carboxylated AR = assay: γ-carboxylation in LNCaP cells (western blotting, immunoprecipitation with anti-γ-carboxyglutamyl antibody); assay type: cell-based; settings: LNCaP lysates, increasing amounts of phenprocoumon
Description: Cells were lysed in RIPA buffer supplemented with a cocktail of protease inhibitors (Roche). Lysates were resolved by sodium dodecyl sulfate-polyacrylamide gel electrophoresis. AR (#5153) and GAPDH (#5174) antibodies were purchased from Cell Signaling Technology (Danvers, Mass., USA). αTUB antibody (ab7291) was purchased from Abcam (Cambridge, UK). Anti-γ-carboxyglutamyl antibody (REF 3570) was purchased from Sekisui Diagnostics (Lexington, Mass., USA).
as §1

[3] = test system: AR signaling canonical targets (KLK3, TMPRSS2, KLK2) and AR; assay: RT-qPCR of AR and canonical targets of AR signaling in LNCaP cells; assay type: cell-based; settings: 24 hours
Description: The RNeasy kit (Qiagen, Venlo, Netherlands) was used to extract RNA. cDNA was produced and reverse transcription quantitative polymerase chain reaction performed using the High Capacity cDNA Reverse Transcription kit and the SYBR Green Master mix from Thermo Fisher Scientific. Reverse transcription quantitative polymerase chain reaction was performed on a LightCycler 480 (Roche, Basel, Switzerland).

CNC(=O)c1ccc(N2C(=S)N(c3ccc(C#N)c(C(F)(F)F)c3)C(=O)C2(C)C)cc1F [enzalutamide]
synergy in combination with phenprocoumon (LNCaP cells): synergistic interaction with phenprocoumon, albeit to a lower extent compared to flutamide

CC1(C)NC(=O)N(c2ccc([N+](=O)[O-])c(C(F)(F)F)c2)C1=O [nilutamide]
synergy in combination with phenprocoumon (LNCaP cells): synergistic interaction with phenprocoumon, albeit to a lower extent compared to flutamide

CCC(c1ccccc1)c1c(O)c2ccccc2oc1=O (centres unmarked) [phenprocoumon]
thermal stability of AR (androgen receptor (AR) [1]; LNCaP cell lysates treated with 100 μM PPC for 30 min, no pretreatment): did not stabilize AR | thermal stability of AR (androgen receptor (AR) [1]; LNCaP cells treated with 35 μM PPC for 2 days): affects the thermal stability of AR | isoelectric point of AR (migration pattern) (androgen receptor (AR) [2]): migrated at a higher isoelectric point | amount of AR immunoprecipitated with γ-carboxylation-specific antibody (γ-carboxylated AR): reduced the amount of immunopreciptated protein in a dose-dependent manner | effect on induction of AR signaling (KLK3, KLK2) by R1881 ([3]; 10 nM R1881 ± 35 μM PPC): did not interfere with the induction of AR signaling | expression of AR signaling canonical targets KLK3, TMPRSS2 and KLK2 ([3]; steroid-deprived medium, 15 μM flutamide, 35 μM PPC): did not affect the expression of these genes
